Data on 15 compounds can be found in patent US20250084453A1, “SYSTEMS, COMPOSITIONS AND METHODS FOR IDENTIFYING E3 LIGASE SUBSTRATES BY UBIQUITIN BIOTINYLATION” (The Broad Institute, Inc., priority 2022, published 2025).

The IC50 is the midpoint of a concentration-inhibition curve. For orientation: Km means the concentration of substrate that gives half-maximal velocity.

Assay [1] has as its target T1, VHL E3 ligase (UniProt P06709+P40337).
T1 construct: expressed in transfected cells
Description: Ubiquitin biotinylation MS profiling of BET/PTK2 degraders in VHL-BirA cells. Type of assay: cell-based, human. The following applies: A3-HA-Ub, 1 μM, 1 hour, FIG. 10. How it is done:
(§1) Enrichment of biotinylated species by streptavidin-coated beads, protein digestion, and protein identification and quantification by mass spectrometry were performed exactly as described in Examples 3 and 4. Triplicate samples allowed for statistical analysis of differentially enriched proteins, represented by log 2-fold-change (FC) between the PROTAC®-treated group and the DMSO-treated group on the x-axis, and significance (p-value estimated by limma) on the y-axis in the figures.

The target of the next assay is PTK2 (Homo sapiens, UniProt Q05397). The following applies: cited from earlier work.
Sequence of PTK2 (Q05397 whole entry): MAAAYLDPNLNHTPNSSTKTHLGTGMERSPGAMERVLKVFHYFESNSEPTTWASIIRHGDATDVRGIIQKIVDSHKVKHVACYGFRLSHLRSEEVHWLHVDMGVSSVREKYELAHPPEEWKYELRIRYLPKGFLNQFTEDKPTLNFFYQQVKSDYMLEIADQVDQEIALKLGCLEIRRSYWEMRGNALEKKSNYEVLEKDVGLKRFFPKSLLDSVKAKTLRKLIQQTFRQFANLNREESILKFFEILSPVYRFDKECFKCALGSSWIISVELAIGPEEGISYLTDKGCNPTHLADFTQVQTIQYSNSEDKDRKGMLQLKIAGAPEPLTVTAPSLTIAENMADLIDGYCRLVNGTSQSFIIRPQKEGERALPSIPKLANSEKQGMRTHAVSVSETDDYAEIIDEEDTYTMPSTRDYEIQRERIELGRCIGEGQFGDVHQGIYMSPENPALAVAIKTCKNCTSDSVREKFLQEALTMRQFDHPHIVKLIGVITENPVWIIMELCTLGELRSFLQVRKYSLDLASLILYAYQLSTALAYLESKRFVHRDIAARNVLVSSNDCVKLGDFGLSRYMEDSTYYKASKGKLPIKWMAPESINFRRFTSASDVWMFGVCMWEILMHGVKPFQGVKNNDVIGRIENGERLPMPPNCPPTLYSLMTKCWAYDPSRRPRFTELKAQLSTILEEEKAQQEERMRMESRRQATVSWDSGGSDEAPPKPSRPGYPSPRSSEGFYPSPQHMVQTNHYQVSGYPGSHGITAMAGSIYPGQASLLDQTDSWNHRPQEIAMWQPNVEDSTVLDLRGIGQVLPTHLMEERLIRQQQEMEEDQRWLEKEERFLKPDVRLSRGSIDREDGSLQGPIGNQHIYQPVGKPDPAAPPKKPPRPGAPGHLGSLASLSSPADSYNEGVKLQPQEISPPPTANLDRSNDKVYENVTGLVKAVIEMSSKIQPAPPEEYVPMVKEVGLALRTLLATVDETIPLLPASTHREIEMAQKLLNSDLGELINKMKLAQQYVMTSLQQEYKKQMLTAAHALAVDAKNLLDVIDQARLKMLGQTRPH
For assay [2], the system named is CRBN E3 ligase. The experiment in a line: Ubiquitin biotinylation MS profiling of BET/PTK2 degraders in CRBN-BirA cells. The assay is classed as cell-based, human. The following applies: A3-HA-Ub, 1 μM, 1 hour, FIG. 10. The procedure: as §1
Assay [3] has as its system CRBN E3 ligase. Description: Ubiquitin biotinylation MS profiling of multikinase PROTACs in HEK293T CRBN-/- CRBN-BirA cells. The assay is classed as cell-based, human. The following applies: A3-HA-Ub; PROTAC 1 μM, 45 minutes after carfilzomib; FIGS. 13A-13D. An excerpt:
In this example, PROTAC® (proteolysis-targeting chimera) molecules that target kinases were created by linking certain kinase degraders with IMiDs analogs. (FIG. 12). PROTAC®s recruit a target protein to be in proximity to an E3 ubiquitin ligase to trigger protein degradation. The ubiquitinated targets of four CRBN-recruiting multi-kinase PROTAC®s were generated to contain the following multikinase degraders: SK-3-91, DB0646, SB1-G-187 and WH-10417-099. These four degraders can collectively induce degradation of a large number of distinct kinases (>125 distinct kinases). FIGS. 13A-13D show the results of a mass spectrometry experiment in which protein substrates susceptible to induced ubiquitination by the abovementioned four multikinase degraders were identified, respectively. These experiments were performed in HEK293T^CRBN−/− cells lentivirally engineered to express CRBN-BirA and transiently expressing A3-HA-Ub. While cultured in biotin-free medium, the cells were pre-treated with carfilzomib (carf; 0.4 μM) for 1 hour, and then were either treated or untreated with the kinase-targeting PROTAC®s (1 μM) for another 45 minutes. […] Enrichment of biotinylated species by streptavidin-coated beads, protein digestion, and protein identification and quantification by mass spectrometry were performed exactly as described in Example 3 and 4. Triplicate samples allowed for statistical analysis of differentially enriched proteins, represented by log 2-fold-change (FC) between the PROTAC®-treated group and the DMSO-treated group on the x-axis, and significance (p-value estimated by limma) on the y-axis in the figures. FIGS. 13A-13D present the induced ubiquitinated substrates for SK-3-91, DB0646, SB1-G-187 and WH-10417-099, respectively, shown and labeled in the upper right quadrant of the plot.

Assay [4] has as its target T2, DCAF15 E3 ubiquitin ligase (UniProt P06709+Q14498+Q66K64).
T2 construct: expressed in transfected cells
Description: Ubiquitin biotinylation MS profiling of molecular glue in HEK293T DCAF15-BirA cells. The following applies: A3-HA-Ub, 10 μM, 1 hour, FIG. 11. Type of assay: cell-based, human. The procedure:
The protocol used in this experiment is the same as that described in Example 6 above, except that the system was evaluated in a HEK293T cell line lentivirally engineered to express DCAF15-BirA and transiently expressing A3-HA-Ub. While cultured in biotin-free medium, the cells were pre-treated with carfilzomib (carf; 0.4 μM) for 1 hour, and then were either treated or untreated with E7820 (10 μM) for another hour. […] Enrichment of biotinylated species by streptavidin-coated beads, protein digestion, and protein identification and quantification by mass spectrometry were performed exactly as described in Examples 3 and 4. Triplicate samples allowed for statistical analysis of differentially enriched proteins, represented by log 2-fold-change (FC) between the E7820-treated group and the DMSO-treated group on the x-axis, and significance (p-value estimated by limma) on the y-axis in the figures. […] Consistent with the expected action of the E7820 glue in the system, the induced ubiquitinated protein RBM39/CAPERα was detected as the target of the E7820 sulfonamide, based on binding activity or protein degradation.

For assay [5], the target named is T1, VHL E3 ligase. The experiment in a line: Ubiquitin biotinylation MS with VHL inhibitor in A375 cells expressing VHL-BirA. Type of assay: cell-based, human. The following applies: MLN4924 pre-treatment and washout, VH298 30 minutes, FIG. 18. How it is done: Experiments were conducted using the methods and systems described herein in conjunction with an inhibitor of an E3 ligase utilized in the experiment. […] The experiments were performed in A375 cells that transiently expressed A3-HA-Ub and VHL-BirA. While cultured in biotin-free medium, the cells were pre-treated with MLN4924 (1 μM) for 2 hours. Thereafter, MLN4924 was washed out of the cell culture with one PBS wash and was replaced with biotin-free medium.
Next, the cells were lysed and kept on ice to terminate the reaction. Enrichment of biotinylated species by streptavidin-coated beads, protein digestion, and protein identification and quantification by mass spectrometry were performed exactly as described in Examples 3 and 4. The samples were analyzed in triplicate to allow for statistical analysis of differentially enriched proteins, represented by log 2-fold-change between the VH298-treated E3 ligase group and the wild-type E3 ligase group on the y-axis, and significance (p-value estimated by limma) on the x-axis in the figures. […] A decrease in biotinylation owing to the inhibitor treatment was observed. Consistent with the expected actions of VHL, HIF1A was identified as a substrate.

The subject of assay [6] is CRBN E3 ligase. The experiment in a line: Ubiquitin biotinylation MS profiling of HDAC degrader in 293T CRBN-/- CRBN-BirA cells. The assay is classed as cell-based, human. The following applies: CRBN-BirA, A3-HA-Ub; 1 μM, 45 minutes; FIG. 14A. How it is done:
as §1, with “The experiments involving CRBN E3 ligase were performed in HEK293T^CRBN−/− cells lentivirally engineered to express CRBN-BirA and transiently expressing A3-HA-Ub. The HDAC degrader XY-07-097 was used in the experiments using the CRBN E3 ligase. The experiments involving VHL E3 ligase were performed in HEK293T cells lentivirally engineered to express VHL-BirA and transiently expressing A3-HA-Ub. The HDAC degrader XY-07-187 was used in the experiments using the VHL E3 ligase. […] Enrichment” for “Enrichment”, “Example” for “Examples”
(§2) Desalted peptides were dried in a vacuum-centrifuged and reconstituted in 0.1% formic acid for LC-MS analysis. Data were collected using a TimsTOF Pro2 (Bruker Daltonics, Bremen, Germany) coupled to a nanoElute LC pump (Bruker Daltonics, Bremen, Germany) via a CaptiveSpray nano-electrospray source. […]

In assay [7] the target is T1, VHL E3 ligase. The experiment in a line: Ubiquitin biotinylation MS profiling of HDAC degrader in 293T VHL-BirA cells. Type of assay: cell-based, human. The following applies: A3-HA-Ub, 1 μM, 45 minutes, FIG. 14B. How it is done: as §1, with “The experiments involving CRBN E3 ligase were performed in HEK293T^CRBN−/− cells lentivirally engineered to express CRBN-BirA and transiently expressing A3-HA-Ub. The HDAC degrader XY-07-097 was used in the experiments using the CRBN E3 ligase. The experiments involving VHL E3 ligase were performed in HEK293T cells lentivirally engineered to express VHL-BirA and transiently expressing A3-HA-Ub. The HDAC degrader XY-07-187 was used in the experiments using the VHL E3 ligase. […] Enrichment” for “Enrichment”, “Example” for “Examples”
as §2

For a further assay, the system named is GSPT1. Description: GSPT1 degradation by Western blot in HEK293T cells and CRBN-/- derivatives. The assay is classed as cell-based, human. The following applies: carfilzomib 0.4 μM 1 hour before CC-885 1 μM. The procedure: However, instead of assessing transiently-expressed V5-tagged IKZF1, an endogenous neo-substrate of CRBN, namely, GSPT1, was assessed. […] Following incubation with the components and added agents, the cells were lysed, and streptavidin-coated beads were used to capture from the cell lysate biotinylated, ubiquitinated proteins, e.g., the endogenous GSPT1 substrate. The biotinylated proteins eluted from the beads were subjected to Western blot analyses.
(In general: Immunoblotting shows a protein as a band on a membrane.)

For the next assay, the system named is BET bromodomains. The following applies: degrader of BET bromodomains; cited from earlier work.
Another assay has as its target T3, V5-IKZF1 (Homo sapiens, UniProt Q13422+Q96SW2).
T3 construct: expressed in transfected cells; host or cells: 293T CRBN-/- cells stably expressing CRBN-BirA; pRK5 vector, transient
Description: Streptavidin pulldown and Western blot of biotinylated ubiquitinated V5-IKZF1 in 293T CRBN-/- CRBN-BirA cells. Type of assay: cell-based.

In assay [8] the target is T4, BirA (Escherichia coli, UniProt P06709).
T4 sequence (P06709 whole entry): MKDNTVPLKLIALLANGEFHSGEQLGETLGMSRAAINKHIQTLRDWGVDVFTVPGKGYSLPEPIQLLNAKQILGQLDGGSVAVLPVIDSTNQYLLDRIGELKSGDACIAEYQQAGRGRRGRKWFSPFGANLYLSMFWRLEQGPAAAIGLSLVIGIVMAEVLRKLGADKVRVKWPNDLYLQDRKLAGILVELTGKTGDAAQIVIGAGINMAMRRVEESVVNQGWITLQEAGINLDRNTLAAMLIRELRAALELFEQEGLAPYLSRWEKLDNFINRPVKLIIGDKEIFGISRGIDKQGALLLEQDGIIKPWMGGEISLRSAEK
Assay [9] concerns the target T4, BirA. The following applies: cited from earlier work.

T1 sequence (P40337+P06709 fused): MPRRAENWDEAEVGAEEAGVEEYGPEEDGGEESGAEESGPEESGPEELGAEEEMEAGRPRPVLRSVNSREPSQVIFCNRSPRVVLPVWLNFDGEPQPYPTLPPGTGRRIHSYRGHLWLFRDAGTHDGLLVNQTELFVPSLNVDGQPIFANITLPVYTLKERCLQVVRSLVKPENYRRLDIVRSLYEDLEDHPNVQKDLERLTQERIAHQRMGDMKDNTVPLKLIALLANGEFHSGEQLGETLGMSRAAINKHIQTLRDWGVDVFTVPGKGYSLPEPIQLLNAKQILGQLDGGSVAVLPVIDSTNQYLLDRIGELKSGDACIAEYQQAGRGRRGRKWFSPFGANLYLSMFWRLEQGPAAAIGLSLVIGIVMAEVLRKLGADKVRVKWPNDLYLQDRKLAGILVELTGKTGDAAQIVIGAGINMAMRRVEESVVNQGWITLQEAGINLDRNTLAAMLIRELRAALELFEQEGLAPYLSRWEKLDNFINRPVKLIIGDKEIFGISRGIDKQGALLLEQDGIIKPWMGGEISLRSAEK
T1 sequence (Q15369 whole entry, further chain): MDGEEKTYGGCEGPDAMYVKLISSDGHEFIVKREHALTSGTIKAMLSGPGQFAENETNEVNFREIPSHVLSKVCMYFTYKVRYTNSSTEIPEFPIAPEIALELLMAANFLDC
T1 sequence (Q15370 whole entry, further chain): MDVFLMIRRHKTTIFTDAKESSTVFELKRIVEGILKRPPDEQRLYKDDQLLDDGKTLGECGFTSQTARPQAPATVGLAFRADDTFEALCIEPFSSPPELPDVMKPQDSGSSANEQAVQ
T3 sequence (Q13422 whole entry): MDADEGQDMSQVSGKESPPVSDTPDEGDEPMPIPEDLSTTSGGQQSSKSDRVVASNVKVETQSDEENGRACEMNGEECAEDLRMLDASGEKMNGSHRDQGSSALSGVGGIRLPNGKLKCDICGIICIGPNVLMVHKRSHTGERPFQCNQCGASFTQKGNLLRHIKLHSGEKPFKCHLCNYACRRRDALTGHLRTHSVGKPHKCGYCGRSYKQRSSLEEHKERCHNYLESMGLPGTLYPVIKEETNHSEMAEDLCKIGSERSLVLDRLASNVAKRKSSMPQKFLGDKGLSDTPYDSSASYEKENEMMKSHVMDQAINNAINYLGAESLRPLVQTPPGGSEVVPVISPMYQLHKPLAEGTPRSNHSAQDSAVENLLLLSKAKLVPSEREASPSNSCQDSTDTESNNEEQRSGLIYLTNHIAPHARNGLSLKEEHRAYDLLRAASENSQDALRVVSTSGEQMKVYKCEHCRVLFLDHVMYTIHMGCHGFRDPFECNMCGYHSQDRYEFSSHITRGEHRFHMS
T3 sequence (Q96SW2 whole entry): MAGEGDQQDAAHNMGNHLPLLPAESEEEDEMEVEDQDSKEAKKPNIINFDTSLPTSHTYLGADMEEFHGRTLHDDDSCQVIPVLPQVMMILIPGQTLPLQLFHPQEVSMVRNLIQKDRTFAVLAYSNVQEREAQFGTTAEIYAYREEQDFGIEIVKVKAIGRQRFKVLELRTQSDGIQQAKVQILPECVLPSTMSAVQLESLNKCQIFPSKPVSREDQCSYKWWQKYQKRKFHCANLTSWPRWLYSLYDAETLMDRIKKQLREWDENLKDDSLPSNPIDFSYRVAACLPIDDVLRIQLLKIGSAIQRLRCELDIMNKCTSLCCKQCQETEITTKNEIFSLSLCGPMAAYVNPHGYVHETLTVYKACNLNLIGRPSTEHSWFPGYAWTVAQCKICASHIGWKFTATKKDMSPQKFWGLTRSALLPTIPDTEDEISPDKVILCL
Description for V5-IKZF1: One day (approximately 24 hours) after the transfection, DMSO (untreated) or carfilzomib (0.4 μM), (“carf”), was added to the cells for 1 hour.
A portion of the lysates (referred to as inputs) were saved for Western blotting analyses. […] The eluates were analyzed by SDS-PAGE gel electrophoresis and Western blotting analyses.
The preparation of cellular lysate was as described above for Cell Lysis, except that the RIPA buffer was supplemented with COMPLETE™ EDTA-free protease inhibitor cocktail (Roche; 04693159001; 1 tablet per 10 ml of buffer), benzonase (Millipore; E1014; 1 μl per 10 ml of buffer), 1.5 mM MgCl2, 1 mM EGTA, and 10 mM NEM (N-ethylmaleimide). For each sample, 1 ml of 3 mg/ml lysate was rotated overnight at 4° C. with 50 μl of resuspended streptavidin Sepharose beads (CYTIVA™; 17511301), which were pre-washed with RIPA lysis buffer 3 times. For all steps that required pelleting of beads, centrifugation was performed at 400×g for 1 minute. On the next day, streptavidin beads were pelleted, and the supernatant (a.k.a. flow-through) was either saved for analysis by Western blotting or was discarded. Streptavidin beads were then washed two times with 1 ml of 2% SDS wash buffer (2% SDS, 25 mM Tris-HCl, pH 7.5), and three times with 0.5-1 ml of 2M urea wash buffer (2M urea, 50 mM Tris-HCl, pH 8). Between each wash, the beads were rotated at room temperature for at least 5 minutes. During the last wash, the beads and the washing buffer were transferred to a new microfuge tube. […] For mass spectrometry-based analysis, the procedures described in On-bead Digestion below were used.
On the next day, the cells were transfected using pRK5-Avi-HA-ubiquitin or pRK5-A3-HA-ubiquitin in serum-free DMEM.

Take `Cc1ncsc1-c1ccc([C@H](C)NC(=O)[C@@H]2C[C@@H](O)CN2C(=O)[C@@H](NC(=O)COCCCOCCNC(=O)C[C@@H]2N=C(c3ccc(Cl)cc3)c3c(sc(C)c3C)-n3c(C)nnc32)C(C)(C)C)cc1` [ARV-771]: the “Induced ubiquitinated substrates versus DMSO” value on VHL E3 ligase [1] is listed as “BRD2, BRD3, BRD4”.

Consider `COc1cc(C(=O)NCCOCCOCCOCC(=O)N[C@H](C(=O)N2C[C@H](O)C[C@H]2C(=O)NCc2ccc(-c3scnc3C)cc2)C(C)(C)C)ccc1Nc1ncc(C(F)(F)F)c(Oc2cccc3c2C(=O)CC3)n1` [BI-0319], for which the “Induced ubiquitinated substrates versus DMSO” value on VHL E3 ligase [1] is “PTK2”.

On to `COc1cc(C(=O)NCCOCCOCCOCCC(=O)Nc2cccc3c2C(=O)N(C2CCC(=O)NC2=O)C3=O)ccc1Nc1ncc(C(F)(F)F)c(Oc2cccc3c2C(=O)CC3)n1` (centres unmarked) [BI-3663], for which the IC50 at PTK2 is 18 nM. For the same compound, in the assay with CRBN E3 ligase [2], the “Induced ubiquitinated substrates versus DMSO” value is given as “PTK2”.

In the case of `Cc1ccc(NC(=O)c2cccc(C(F)(F)F)c2)cc1N1Cc2cnc(Nc3ccc(N4CCN(Cc5cn(CCCCCOc6cccc7c6C(=O)N(C6CCC(=O)NC6=O)C7=O)nn5)CC4)nc3)nc2N(C)C1=O` (centres unmarked) [DB0646], the “Induced ubiquitinated proteins versus DMSO” value in the assay on CRBN E3 ligase [3] is recorded as “the majority of the induced ubiquitinated proteins detected were kinase targets”.

As to `Cc1ccc(NS(=O)(=O)c2cccc(C#N)c2)c2[nH]cc(C#N)c12` [E7820], in assay [4], the “Induced ubiquitinated substrate versus DMSO” value is listed as “RBM39/CAPERα”.

In the case of `Cc1ccc(C(=O)Nc2ccc(CN3CCN(CCCOCCOCCOCCNC(=O)COc4cccc5c4C(=O)N(C4CCC(=O)NC4=O)C5=O)CC3)c(C(F)(F)F)c2)cc1C#Cc1cnc2cccnn12` (centres unmarked) [SB1-G-187], the “Induced ubiquitinated proteins versus DMSO” value in the assay with CRBN E3 ligase [3] is on record as “the majority of the induced ubiquitinated proteins detected were kinase targets”.

As for `CC(C)S(=O)(=O)c1ccccc1Nc1nc(Nc2ccc(N3CCN(CCOCCNC(=O)CNc4cccc5c4C(=O)N(C4CCC(=O)NC4=O)C5=O)CC3)cc2)ncc1Cl` (centres unmarked) [SK-3-91], in the assay with CRBN E3 ligase [3], the “Induced ubiquitinated proteins versus DMSO” value is reported as “the majority of the induced ubiquitinated proteins detected were kinase targets”.

For the compound `Cc1ncsc1-c1ccc(CNC(=O)[C@@H]2C[C@@H](O)CN2C(=O)[C@@H](NC(=O)C2(C#N)CC2)C(C)(C)C)cc1` [VH298], the “VHL substrate revealed by decrease in biotinylation owing to the inhibitor treatment” value on VHL E3 ligase [5] is “HIF1A”.

As to `O=C(/C=C/c1ccc(CN(CCCCCNc2cccc3c2C(=O)N(C2CCC(=O)NC2=O)C3=O)CCc2c[nH]c3ccccc23)cc1)NO` (centres unmarked) [XY-07-097], in the assay on CRBN E3 ligase [6], the “Induced ubiquitinated HDAC substrates versus DMSO” value is “HDAC2, HDAC6, and HDAC8”.

`Cc1ncsc1-c1ccc(CNC(=O)[C@@H]2C[C@@H](O)CN2C(=O)C(NC(=O)C2(F)CC2)C(C)(C)C)c(OCCCCCN(CCc2c[nH]c3ccccc23)Cc2ccc(/C=C/C(=O)NO)cc2)c1` (some centres unmarked) [XY-07-187]: the “Induced ubiquitinated HDAC substrates versus DMSO” value at VHL E3 ligase [7] was “HDAC1, HDAC2, HDAC6, and HDAC8”.

Take `CC(C)C[C@H](NC(=O)[C@H](CCc1ccccc1)NC(=O)CN1CCOCC1)C(=O)N[C@@H](Cc1ccccc1)C(=O)N[C@@H](CC(C)C)C(=O)[C@@]1(C)CO1` [carfilzomib]: in the assay with GSPT1, the “Rescue of CC-885-induced GSPT1 degradation” value is reported as “partially rescued”.

For `Cc1sc2c(c1C)C(c1ccc(Cl)cc1)=N[C@@H](CC(=O)NCCCCCCCCNC(=O)COc1cccc3c1C(=O)N(C1CCC(=O)NC1=O)C3=O)c1nnc(C)n1-2` (some centres unmarked) [dBET6], in the assay with BET bromodomains, the IC50 is roughly 10 nM. The “Induced ubiquitinated substrates versus DMSO” value with CRBN E3 ligase [2] is “BRD2, BRD3, BRD4”.

As for `Nc1cccc2c1C(=O)N(C1CCC(=O)NC1=O)C2=O` (centres unmarked) [pomalidomide], on V5-IKZF1, the “Induced ubiquitination of IKZF1 by E3 ligase CRBN” value is given as “showed pomalidomide-induced ubiquitination of IKZF1”; the “Mono- and poly-ubiquitinated V5-IKZF1 captured by streptavidin beads” value was “increased amount”; the “Ubiquitinated V5-IKZF1 captured by streptavidin beads compared with DMSO” value is reported as “approximately 3.9 fold”.

Take GLNDIFEAQKIE [A3-Tag]: the “Increase in Km relative to Avi-Tag” value at BirA [8] is on record as roughly 14 fold. In addition, the Km on BirA [9] was 345 µM.

As for GLNDIFEAQKIEWHE [Avi-Tag], the Km at BirA [9] is 25 µM.
